Laboratory results taken from patent US12638451B2, “Genetic amplified tumor homing nanoparticles and compositions and methods thereof” (priority 2019, dated 2026).

Test system: xenograft models of prostate cancer
Assay: In vivo antitumor efficacy
Design: species or system mice
Conditions: Dox 22 μg/mL or Tf-Dox containing 5 μg/mL Dox i.v.; Ad.DD3 intratumoral 7 days before; 14 days observation
Text: To study the in vivo enhancement effect of the genetic probes on the antitumor efficacy of Tf-Dox, we first established xenograft models of prostate cancer by subcutaneous injection of LNCap tumor cells (about 1×10^6) in Matrigel (BD Biosciences; 1/1) into the left shoulder of BALB/c male mice. […] During 14 days of observation, we monitored the tumor volumes according to the following formula: V=a×b^2/2 where a and b were the longest and shortest diameters of the tumor, respectively, measured using a Vernier caliper. […] The reduced injection dose, in turn, is promising to lower down the distribution and biotoxicity of drugs towards the normal tissues. […] Thus, the optimized therapy outcome of the gene-nanoparticle synergetic strategy is resulted from the enhanced tumor homing ability of the nanoparticles leading to higher DOX accumulation in the tumor cells rather than the antitumor effect of the gene probes.
Xenograft models of prostate cancer were established by subcutaneous injection of LNCap tumor cells (about 1×10^6) in Matrigel (BD Biosciences; 1/1) into the left shoulder of BALB/c male mice. […] Changes in tumor volume and body weight were monitored at several scheduled time-points. The volume of the tumor was calculated according to the following formula: V=a×b^2/2 where a and b were the longest and shortest diameters of tumor, respectively, measured using a Vernier calliper. […]

Substance: Tf-Dox
- Tumor volume / tumor inhibition: an increase of tumor volume was visualized
